Measured values reported in PubChem BioAssay AID2060499 (Molecular Pharmacology Branch, DTP, NCI, 2025).

Test system: 777334-354-R2-J4-PDC tumor spheroids with HUVEC/MSC, viability
Experiment: Anticancer human tumor 777334-354-R2-J4-PDC patient-derived pancreatic adenocarcinoma cell line growth inhibition [GQUAD]
Conditions: for IC50: curve of first compound; for viability, T/C: stronger effect = lower value
How it was run: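 Multi-cell-type spheroids of tumor cells with HUVEC and mesenchymal stem cells, treated with drug combinations. Concentrations descend in half-log steps from near clinical Cmax, or from 10 microM where Cmax is unknown; viability read-out.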

[1] = second compound 0.0316 µM, first compound 0.0316 µM
[2] = second compound 0.0316 µM, first compound 0.1 µM
[3] = second compound 0.0316 µM, first compound 0.316 µM
[4] = second compound 0.0316 µM, first compound 1 µM
[5] = second compound 0.0316 µM, first compound 3.16 µM
[6] = second compound 0.0316 µM, first compound 10 µM
[7] = second compound 0.1 µM, first compound 0.0316 µM
[8] = second compound 0.1 µM, first compound 0.1 µM
[9] = second compound 0.1 µM, first compound 0.316 µM
[10] = second compound 0.1 µM, first compound 1 µM
[11] = second compound 0.1 µM, first compound 3.16 µM
[12] = second compound 0.1 µM, first compound 10 µM
[13] = second compound 0.316 µM, first compound 0.0316 µM
[14] = second compound 0.316 µM, first compound 0.1 µM
[15] = second compound 0.316 µM, first compound 0.316 µM
[16] = second compound 0.316 µM, first compound 1 µM
[17] = second compound 0.316 µM, first compound 3.16 µM
[18] = second compound 0.316 µM, first compound 10 µM
[19] = second compound 1 µM, first compound 0.0316 µM
[20] = second compound 1 µM, first compound 0.1 µM
[21] = second compound 1 µM, first compound 0.316 µM
[22] = second compound 1 µM, first compound 1 µM
[23] = second compound 1 µM, first compound 3.16 µM
[24] = second compound 1 µM, first compound 10 µM
[25] = second compound 3.16 µM, first compound 0.0316 µM
[26] = second compound 3.16 µM, first compound 0.1 µM
[27] = second compound 3.16 µM, first compound 0.316 µM
[28] = second compound 3.16 µM, first compound 1 µM
[29] = second compound 3.16 µM, first compound 3.16 µM
[30] = second compound 3.16 µM, first compound 10 µM
[31] = second compound 10 µM, first compound 0.0316 µM
[32] = second compound 10 µM, first compound 0.1 µM
[33] = second compound 10 µM, first compound 0.316 µM
[34] = second compound 10 µM, first compound 1 µM
[35] = second compound 10 µM, first compound 3.16 µM
[36] = second compound 10 µM, first compound 10 µM
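Also: spheroids exposed to compounds for 7 days before readout.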

In the case of `C#Cc1c(F)ccc2cc(O)cc(-c3ncc4c(N5CC6CCC(C5)N6)nc(OCC56CCCN5CC(F)C6)nc4c3F)c12` (stereo unspecified) + Cc1cnc(CNC(=O)c2c(=O)c3ccc(N4CCCN(C)CC4)nc3n3c2sc2ccccc23)cn1, the IC50 (second compound 0.0316 µM) is reported as < 31.6 nM, the IC50 (second compound 0.1 µM) is reported as < 31.6 nM and the IC50 (second compound 0.316 µM) is reported as < 31.6 nM. The IC50 (second compound 1 µM) was < 31.6 nM, the IC50 (second compound 3.16 µM) was < 31.6 nM and the IC50 (second compound 10 µM) was < 31.6 nM. For the same compound, the viability, T/C [1] was 49.7%, the viability, T/C [2] was 38.7% and the viability, T/C [3] was 31.4%. The viability, T/C [4] was 31.6%, the viability, T/C [5] was 27.1% and the viability, T/C [6] was 24.2%. For the same compound, the viability, T/C [7] was 45.1%, the viability, T/C [8] was 34.4% and the viability, T/C [9] was 30.9%. The viability, T/C [10] was 26.4%, the viability, T/C [11] was 23.5% and the viability, T/C [12] was 21.3%. For the same compound, the viability, T/C [13] was 39.6%, the viability, T/C [14] was 33.8% and the viability, T/C [15] was 28.8%. It also gave a viability, T/C [16] of 25.6%, a viability, T/C [17] of 22.6% and a viability, T/C [18] of 19.9%. The viability, T/C [19] was 36.2%, the viability, T/C [20] was 29.4% and the viability, T/C [21] was 31.1%. The viability, T/C [22] was 23.6%, the viability, T/C [23] was 21.9% and the viability, T/C [24] was 19.4%. The viability, T/C [25] was 28%, the viability, T/C [26] was 25.5% and the viability, T/C [27] was 22.8%. The viability, T/C [28] was 19.2%, the viability, T/C [29] was 17.5% and the viability, T/C [30] was 14.4%. The viability, T/C [31] was 22%, the viability, T/C [32] was 16.7% and the viability, T/C [33] was 15%. It also gave a viability, T/C [34] of 8.71%, a viability, T/C [35] of 8.87% and a viability, T/C [36] of 3.17%.
For `CC(=O)O[C@H]1C(=O)[C@@]2(C)[C@H]([C@H](OC(=O)c3ccccc3)[C@]3(O)C[C@H](OC(=O)[C@H](O)[C@@H](NC(=O)c4ccccc4)c4ccccc4)C(C)=C1C3(C)C)[C@]1(OC(C)=O)CO[C@@H]1C[C@@H]2O` + Cc1cnc(CNC(=O)c2c(=O)c3ccc(N4CCCN(C)CC4)nc3n3c2sc2ccccc23)cn1, the IC50 (second compound 0.0316 µM) was > 10000 nM, the IC50 (second compound 0.1 µM) was > 10000 nM and the IC50 (second compound 0.316 µM) was > 10000 nM. The IC50 (second compound 1 µM) was > 10000 nM, the IC50 (second compound 3.16 µM) was > 10000 nM and the IC50 (second compound 10 µM) was > 10000 nM. It also gave a viability, T/C [1] of 70%, a viability, T/C [2] of 49.9% and a viability, T/C [3] of 53.5%. For the same compound, the viability, T/C [4] was 43%, the viability, T/C [5] was 52.1% and the viability, T/C [6] was 52.8%. The viability, T/C [7] was 78.2%, the viability, T/C [8] was 54.7% and the viability, T/C [9] was 61.6%. For the same compound, the viability, T/C [10] was 45.4%, the viability, T/C [11] was 60.9% and the viability, T/C [12] was 59.7%. For the same compound, the viability, T/C [13] was 74.3%, the viability, T/C [14] was 61.9% and the viability, T/C [15] was 61.5%. It also gave a viability, T/C [16] of 68.1%, a viability, T/C [17] of 64.2% and a viability, T/C [18] of 62.1%. It also gave a viability, T/C [19] of 65%, a viability, T/C [20] of 63.5% and a viability, T/C [21] of 61%. The viability, T/C [22] was 67.3%, the viability, T/C [23] was 80.5% and the viability, T/C [24] was 70.1%. The viability, T/C [25] was 57%, the viability, T/C [26] was 66.5% and the viability, T/C [27] was 63.6%. For the same compound, the viability, T/C [28] was 58.4%, the viability, T/C [29] was 71.6% and the viability, T/C [30] was 74.1%. It also gave a viability, T/C [31] of 61.2%, a viability, T/C [32] of 50.1% and a viability, T/C [33] of 55.8%. It also gave a viability, T/C [34] of 58.4%, a viability, T/C [35] of 60.6% and a viability, T/C [36] of 52.3%.
For `CC(C)(O)C1CCC(Nc2ccc3ncc(-c4cccc(C(F)(F)F)c4)n3n2)CC1` (stereo unspecified) + Cc1cnc(CNC(=O)c2c(=O)c3ccc(N4CCCN(C)CC4)nc3n3c2sc2ccccc23)cn1, the IC50 (second compound 0.0316 µM) was 880 nM, the IC50 (second compound 0.1 µM) was 806 nM and the IC50 (second compound 0.316 µM) was 838 nM. For the same compound, the IC50 (second compound 1 µM) was 913 nM, the IC50 (second compound 3.16 µM) was 776 nM and the IC50 (second compound 10 µM) was < 31.6 nM. For the same compound, the viability, T/C [1] was 105%, the viability, T/C [2] was 74% and the viability, T/C [3] was 94.5%. For the same compound, the viability, T/C [4] was 44.8%, the viability, T/C [5] was 27.7% and the viability, T/C [6] was 35.2%. It also gave a viability, T/C [7] of 85%, a viability, T/C [8] of 74% and a viability, T/C [9] of 79.5%. It also gave a viability, T/C [10] of 43.2%, a viability, T/C [11] of 29.1% and a viability, T/C [12] of 35.4%. For the same compound, the viability, T/C [13] was 80.8%, the viability, T/C [14] was 71.5% and the viability, T/C [15] was 71.5%. The viability, T/C [16] was 46.5%, the viability, T/C [17] was 29.1% and the viability, T/C [18] was 31.3%. It also gave a viability, T/C [19] of 63%, a viability, T/C [20] of 67.4% and a viability, T/C [21] of 67%. For the same compound, the viability, T/C [22] was 48.6%, the viability, T/C [23] was 33% and the viability, T/C [24] was 30.7%. For the same compound, the viability, T/C [25] was 61.4%, the viability, T/C [26] was 68.9% and the viability, T/C [27] was 56.9%. The viability, T/C [28] was 48.4%, the viability, T/C [29] was 24.4% and the viability, T/C [30] was 23.9%. It also gave a viability, T/C [31] of 51.5%, a viability, T/C [32] of 40.1% and a viability, T/C [33] of 48.3%. It also gave a viability, T/C [34] of 36.1%, a viability, T/C [35] of 0.23% and a viability, T/C [36] of 0.19%.
